Experimental data: patent US20140242019A1, “COMPOSITION FOR PREVENTING HAIR LOSS AND GROWING HAIR COMPRISING HYDROXYDIHYDROBOVOLIDE” (Pukyong National University Industry-University Cooperation …, priority 2013, published 2014)
Entries after “also recorded” stand apart in the source; their conditions may differ.

What was measured:
[1] = test system: human hair follicle dermal papilla cells; test: MTT cell proliferation / survival rate in human hair follicle dermal papilla cells; assay type: cell-based; details: 24 h
Experimental: (§1) All of the tests were performed after obtaining approval of Ethics Commission of Medical College, Kyungpook National University. As samples of hairs, hairs in intact state were collected from scalps in the backs of the heads of male hair transplant patients. All of the hair samples were used with the consent of hair transplant patient who provides the samples. The area of subcutaneous fat of scalp including a hair follicle was isolated from the hair sample, and then the hair follicle was isolated by using a binocular microscope. In order to obtain hair papilla cells, the hair papilla was isolated from the hair follicle, and then shifted to a dish that was coated with bovine type I collagen. Then, the hair papilla in the dish was cultured (in an incubator at 37° C. and 5% CO2) in a DEME (Gibco BRL, Gaithersburg. Md., USA) medium including 20% heat inactivated fetal bovine serum including penicillin (100 U/mL) and streptomycin ([…]). […]
(§2) It was investigated whether or not the hydroxydihydrobovolide compound according to the present invention has an effect on cell proliferation in hair follicle cells and cells in the outer root sheath, in which the cells were closely associated with hair growth. […] After 30 minutes, absorbance of the cells was measured (570 nm).

[2] = test system: hair outer root sheath cells; test: MTT cell proliferation / survival rate in hair outer root sheath cells; assay type: cell-based, human; details: 24 h
Experimental: as §1, §2

human hair tissues = test: Evaluation of hair growth using human hair tissue culture; assay type: cell-based; details: 5 μM
Experimental: The human hair tissues were supplied from an immunology laboratory in Kyungpook National University. The human hair tissues were cultured in an incubator at 37° C. and CO2 by using Williams E media (Sigma, USA) including 2 mM L-glutamin, 100 U/mL of streptomycin, and 10 ng/ml of hydrocortisone. The test materials with various concentrations were cultured for 6 days, and the lengths of hairs were measured on the third days and sixth day.

CCCCCC1(O)OC(=O)C(C)=C1C (stereo not drawn) [hydroxydihydrobovolide, 5-hydroxy-3,4-dimethyl-5-pentylfuran-2(5H)-one]
cell proliferation increased by ([1]; 0.05 μM, vs untreated control group, p<0.05): 144%
effect on cell proliferation compared with control group ([1]; 0.005 to 0.5 μM): significant cell proliferation effect; also recorded: significant effects on cell proliferation
cell proliferation increased by ([2]; 0.5 μM, vs control group, highest effect): 156%
cell proliferation compared with control group ([2]; 0.005 to 0.5 μM): significantly higher cell proliferation rate than the control group; also recorded: significantly higher than that of the control group
length of hair on the third day (human hair tissues; day 3 of culture): 0.62 mm
length of hair on the sixth day (human hair tissues; day 6 of culture): 1.38 mm
